Like-named read-outs stand apart in the source and are kept apart here.
Tests used:
[1] = system: recombinant wt SARS-CoV-2-mCherry (rWA1); assay: microbe, parasite or virus in culture; assay type: cell-based
[2] = system: wild-type VSV-G-3CL^pro-L; assay: microbe, parasite or virus in culture; assay type: cell-based

CC(C)(C)[C@H](NC(=O)C(F)(F)F)C(=O)N1C[C@H]2[C@@H]([C@H]1C(=O)N[C@H](C#N)C[C@@H]1CCNC1=O)C2(C)C [Nirmatrelvir, nirmatrelvir]
IC50 ([1]; Severe acute respiratory syndrome coronavirus 2, read-out: IC50 48 hpi): 8.68 nM | IC50 ([1]; Severe acute respiratory syndrome coronavirus 2, read-out: IC50 72 hpi): 8.51 nM | replication inhibited [2]: 10^6 fold | IC50 ([2]; Vesicular stomatitis virus, BHK-21, 24 h, read-out: half maximal inhibitor concentration (IC50) of virus replication): ~185 nM

Reference: PMC9765458 (Science Translational Medicine, 2022)
